Test results as given in patent US20200140489A1 (priority 2013, published 2020).
Like-named read-outs stand apart in the source and are kept apart here. Positions of bridges follow the written chain, without caps; N, C: chain ends. Non-standard residues stand in square brackets, D forms with d. Residues, ends and D or L forms follow the SMILES beside them. *: point of attachment. X1 = CC[C@@H](C)C1NC(=O)CN(CC(=O)*)C1=O; NMeL = CN[C@@H](CC(C)C)C(=O)O; Nleu = CC(C)CNCC(=O)O; Aoc = NCCCCCCCC(=O)O; GABA = NCCCC(=O)O

Assays:
Type in all cases: cell-based, S. aureus
AgrC-IV = AgrC-IV (Staphylococcus aureus, UniProt Q309Z2); conditions: for IC50: read-out: AgrC-IV IC50; for AgrC-IV % Activation: fluorescence of treated vs non-treated wild-type bacteria, lower % activation = more potent inhibition
AgrC-III = AgrC-III (Staphylococcus aureus, UniProt O33590); conditions: for IC50: read-out: AgrC-III IC50, fluorescence reporter strain; for AgrC-III activity: gfp/fluorescence assay; for AgrC-III % Activation: fluorescence of treated vs non-treated wild-type bacteria, lower % activation = more potent inhibition
AgrC-I = AgrC-I (Staphylococcus aureus, UniProt O07911); conditions: for IC50: read-out: AgrC-I IC50, fluorescence reporter strain; for AgrC-I % Activation: fluorescence of treated vs non-treated wild-type bacteria, lower % activation = more potent inhibition
AgrC-II = AgrC-II (Staphylococcus aureus, UniProt O33587); conditions: for IC50: read-out: AgrC-II IC50, fluorescence reporter strain; for AgrC-II % Activation: fluorescence of treated vs non-treated wild-type bacteria, lower % activation = more potent inhibition
[1] = fluorescence reporter strain, AIPs tested over 200 fM − 10 μM or (b1) 2.5 pM − 10 μM, triplicate
[2] = AIPs tested over 200 fM − 10 μM or (b1) 2.5 pM − 10 μM, triplicate
[3] = second-generation analogues, fluorescence reporter strain, 200 fM − 10 μM
[4] = second-generation analogues, 200 fM − 10 μM

AgrC-II, sequence (O33587 1-437): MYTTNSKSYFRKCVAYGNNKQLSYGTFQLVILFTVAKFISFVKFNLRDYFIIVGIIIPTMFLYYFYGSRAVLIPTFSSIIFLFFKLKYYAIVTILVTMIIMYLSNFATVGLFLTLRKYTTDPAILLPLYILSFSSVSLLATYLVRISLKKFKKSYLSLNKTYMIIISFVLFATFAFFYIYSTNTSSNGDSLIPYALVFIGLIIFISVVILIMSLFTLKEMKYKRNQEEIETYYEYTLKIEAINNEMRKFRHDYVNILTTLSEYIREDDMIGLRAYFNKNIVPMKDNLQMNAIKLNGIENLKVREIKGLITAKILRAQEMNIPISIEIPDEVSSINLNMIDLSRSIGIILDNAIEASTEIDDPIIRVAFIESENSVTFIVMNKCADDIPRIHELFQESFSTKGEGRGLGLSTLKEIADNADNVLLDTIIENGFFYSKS
AgrC-I, sequence (O07911 1-430): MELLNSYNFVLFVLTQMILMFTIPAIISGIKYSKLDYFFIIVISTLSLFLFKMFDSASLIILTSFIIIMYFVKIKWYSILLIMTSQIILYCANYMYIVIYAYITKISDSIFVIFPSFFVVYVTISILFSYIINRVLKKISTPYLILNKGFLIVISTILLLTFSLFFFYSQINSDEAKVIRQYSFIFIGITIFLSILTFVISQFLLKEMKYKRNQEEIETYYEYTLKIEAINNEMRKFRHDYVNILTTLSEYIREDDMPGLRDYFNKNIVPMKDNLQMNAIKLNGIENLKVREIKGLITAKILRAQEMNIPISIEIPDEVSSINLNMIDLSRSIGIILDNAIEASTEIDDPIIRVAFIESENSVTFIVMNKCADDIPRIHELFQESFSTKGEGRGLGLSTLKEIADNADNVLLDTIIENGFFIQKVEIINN
AgrC-IV, sequence (Q309Z2 1-430): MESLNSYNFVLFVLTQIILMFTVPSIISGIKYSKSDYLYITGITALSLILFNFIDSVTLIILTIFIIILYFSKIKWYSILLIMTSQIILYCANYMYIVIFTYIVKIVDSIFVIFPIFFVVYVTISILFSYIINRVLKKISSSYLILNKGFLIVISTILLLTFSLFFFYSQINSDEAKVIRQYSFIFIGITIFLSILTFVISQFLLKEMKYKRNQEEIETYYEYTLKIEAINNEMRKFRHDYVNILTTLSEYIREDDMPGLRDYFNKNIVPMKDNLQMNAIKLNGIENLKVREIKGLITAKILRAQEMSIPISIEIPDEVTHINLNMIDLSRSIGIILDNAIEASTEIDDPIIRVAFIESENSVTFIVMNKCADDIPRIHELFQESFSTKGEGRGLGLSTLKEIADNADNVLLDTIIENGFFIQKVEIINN
AgrC-III, sequence (O33590 1-425): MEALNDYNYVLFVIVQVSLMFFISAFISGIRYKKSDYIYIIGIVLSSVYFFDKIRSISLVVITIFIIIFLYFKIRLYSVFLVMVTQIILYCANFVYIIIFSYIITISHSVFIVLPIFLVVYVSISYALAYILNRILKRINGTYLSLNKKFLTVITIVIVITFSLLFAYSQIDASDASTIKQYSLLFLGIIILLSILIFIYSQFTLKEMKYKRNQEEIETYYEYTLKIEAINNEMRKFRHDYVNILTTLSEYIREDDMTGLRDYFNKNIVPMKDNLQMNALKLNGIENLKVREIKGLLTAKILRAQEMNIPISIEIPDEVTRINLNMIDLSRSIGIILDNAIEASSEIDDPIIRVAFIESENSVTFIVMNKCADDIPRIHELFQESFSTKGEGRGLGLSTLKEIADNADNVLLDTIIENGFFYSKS

SMILES	IC50 (AgrC-III; [2]) [nM]	IC50 (AgrC-IV; [1]) [nM]	AgrC-III activity (AgrC-III)	IC50 (AgrC-IV; [3]) [nM]	IC50 (AgrC-III; [4]) [nM]	IC50 (AgrC-I; [4]) [nM]	IC50 (AgrC-II; [4]) [nM]	further results
CC[C@H](C)[C@H](N)C(=O)N[C@@H](CC(N)=O)C(=O)N[C@H]1CSC(=O)[C@H](CC(C)C)N(C)C(=O)[C@H](CC(C)C)NC(=O)[C@H](Cc2ccccc2)NC(=O)[C@H](CC(=O)O)NC1=O [AIP-III N-Me-L7, I-N-(C-D-F-L-NMeL)] (H-INCDFL[NMeL]; thioester 3-C)	> 1000							AgrC-IV IC50 (AgrC-IV; [1]): _h
CC[C@H](C)[C@H](N)C(=O)N[C@@H](CC(N)=O)C(=O)N[C@H]1CSC(=O)[C@H](CC(C)C)NC(=O)[C@H](CC(C)C)NC(=O)[C@H](Cc2ccccc2)NC(=O)CN(CC(=O)O)C1=O [AIP-III nD4, I-N-(C-nD-F-L-L)]		53.2						IC50 (AgrC-I; [2]): 162 nM; IC50 (AgrC-II; [2]): 28.3 nM
CC[C@H](C)[C@H](N)C(=O)N[C@@H](CC(N)=O)C(=O)N[C@H]1CSC(=O)[C@H](CC(C)C)NC(=O)CN(CC(C)C)C(=O)[C@H](Cc2ccccc2)NC(=O)[C@H](CC(=O)O)NC1=O [AIP-III nL6, I-N-(C-D-F-nL-L)] (H-INCDF[Nleu]L; thioester 3-C)	> 1000	> 1000						
CC[C@@H](C)C1NC(=O)CN(CC(=O)N[C@H]2CSC(=O)[C@H](CC(C)C)NC(=O)[C@H](CC(C)C)NC(=O)[C@H](Cc3ccccc3)NC(=O)[C@H](CC(=O)O)NC2=O)C1=O (stereo partly drawn) [AIP-III nN2 DKP, (I-nN)-(C-D-F-L-L)] (X1-CDFLL; thioester 1-C)	25.1	84.8	AgrC-III inhibitor					IC50 (AgrC-I; [2]): 126 nM; IC50 (AgrC-II; [2]): 4.28 nM
CC[C@H](C)[C@H](NC(C)=O)C(=O)N[C@@H](CC(N)=O)C(=O)N[C@H]1CSC(=O)[C@H](CC(C)C)NC(=O)[C@H](CC(C)C)NC(=O)[C@H](Cc2ccccc2)NC(=O)[C@H](CC(=O)O)NC1=O [Ac-AIP-III, Ac-I-N-(C-D-F-L-L)] (Ac-INCDFLL; thioester 3-C)			largely inactive	> 200	> 200	> 200	44.3	
CC[C@H](C)[C@H](NC(=O)CN)C(=O)N[C@@H](CC(N)=O)C(=O)N[C@H]1CSC(=O)[C@H](CC(C)C)NC(=O)[C@H](CC(C)C)NC(=O)[C@H](Cc2ccccc2)NC(=O)[C@H](CC(=O)O)NC1=O [G-AIP-III, G-I-N-(C-D-F-L-L)] (H-GINCDFLL; thioester 4-C)			largely inactive	104	> 200	29.9	13.7	
CC[C@H](C)[C@H](NC(=O)[C@@H](N)Cc1ccc(O)cc1)C(=O)N[C@@H](CC(N)=O)C(=O)N[C@H]1CSC(=O)[C@H](CC(C)C)NC(=O)[C@H](CC(C)C)NC(=O)[C@H](Cc2ccccc2)NC(=O)[C@H](CC(=O)O)NC1=O [Y-AIP-III, Y-I-N-(C-D-F-L-L)] (H-YINCDFLL; thioester 4-C)			moderate antagonist	78.2	39.2	8.92	3.75	
CC(=O)N[C@H]1CSC(=O)[C@H](Cc2ccccc2)NC(=O)[C@H](CC(C)C)NC(=O)CCCNC1=O [n3LF] (Ac-C[GABA]LF; thioester 1-C)			global inhibitor of all four AgrC receptors					AgrC-IV % Activation (AgrC-IV): 6 ± 3%; AgrC-IV activity (AgrC-IV; gfp/fluorescence assay): global inhibitor of all four AgrC receptors; AgrC-III % Activation (AgrC-III): 13 ± 7%; AgrC-I % Activation (AgrC-I): 17 ± 7%; AgrC-I activity described in text (AgrC-I; gfp/fluorescence assay): global inhibitor of all four AgrC receptors; AgrC-II % Activation (AgrC-II): 28 ± 10%; AgrC-II activity described in text (AgrC-II; gfp/fluorescence assay): global inhibitor of all four AgrC receptors
CC(=O)N[C@H]1CSC(=O)[C@H](Cc2ccccc2)NC(=O)[C@H](CC(C)C)NC(=O)CCCCCCCNC1=O [n7LF] (Ac-C[Aoc]LF; thioester 1-C)			selective group-III inhibitors					AgrC-IV % Activation (AgrC-IV): 98 ± 14%; AgrC-III % Activation (AgrC-III): 7 ± 3%; AgrC-I % Activation (AgrC-I): 54 ± 34%; AgrC-II % Activation (AgrC-II): 43 ± 25%
CC(=O)N[C@H]1CSC(=O)[C@H](CC(C)C)NC(=O)[C@H](CC(C)C)NC(=O)[C@H](Cc2ccccc2)NC(=O)[C@H](CC(=O)O)NC1=O [tAIP-III, Ac-(C-D-F-L-L)] (Ac-CDFLL; thioester 1-C)			largely inactive	25.5	> 200	26.7	1.53	
